Experimental data as given in article PMC9365315 (ACS chemical neuroscience, 2022).

Columns and labels:
[1] = tested on: RAW 264.7 mouse macrophages induced with LPS; assay: Cytokine mRNA expression in LPS-induced RAW 264.7 macrophages; format: cell-based; settings: 10 and 1 μM, 48 h, preliminary data
[2] = tested on: EAE mice; assay: Mechanical withdrawal thresholds; format: in vivo, mouse (C57BL/6, female); settings: day 24 post-EAE induction; compound 5 and modafinil 10 mg/kg, Solu-Medrol 50 mg/kg p.o. days 1–10

NC(=O)C[S+]([O-])C(c1ccccc1)c1ccccc1 (racemic) [(±)-modafinil]
mRNA expression levels of TNF-α, IL-1β and IL-4Rα [1]: minimal ability to modulate
Mechanical withdrawal threshold, front left paw (von Frey) [2]: decreased reflex thresholds
